Test systems include DU-145 prostate; EKVX NSCLC; HS 578T breast; HT29 colon; M14 melanoma; MCF7 breast; PC-3 prostate; RXF 393 renal; SK-OV-3 ovarian; HCC-2998 colon.
Common to all, as to assay: inhibition of tumour cell growth, NCI panel, 48 h

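Interpolation was linear, between the two tested concentrations surrounding the appropriate level; five concentrations were tested over 48 hours in 96-well plates. TGI: concentration producing complete growth inhibition.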

Take `O=C(c1ccccc1)c1ccc2[nH]c(-c3c(Cl)c(Cl)c(Cl)c(Cl)c3C(=O)N/N=C/c3cccc(Oc4ccccc4)c3)nc2c1`: the TGI with DU-145 prostate, in the assay on EKVX NSCLC, with HS 578T breast, in the assay on HT29 colon, in the assay with M14 melanoma and in the assay with MCF7 breast was over 100 µM in each case. Besides, the TGI with PC-3 prostate, with RXF 393 renal and in the assay with SK-OV-3 ovarian was over 100 µM throughout.

`Nc1nc2ncc(CNc3ccc(C(=O)NC(CCC(=O)O)C(=O)O)cc3)nc2c(=O)[nH]1` (stereo unspecified): the TGI in the assay with EKVX NSCLC, in the assay on HCC-2998 colon, in the assay on HS 578T breast, in the assay on HT29 colon, in the assay with M14 melanoma and in the assay on MCF7 breast was over 100 µM throughout. Besides, the TGI with PC-3 prostate and with RXF 393 renal was over 100 µM throughout.

Regarding `O=C(CN1CCOCC1)c1ccc2c(c1)oc(=O)n2CCN1CCOCC1`, the TGI with DU-145 prostate, with EKVX NSCLC, in the assay with HS 578T breast, in the assay on HT29 colon, with M14 melanoma and in the assay with MCF7 breast was over 100 µM in each case. For the same compound, the TGI in the assay on PC-3 prostate, in the assay on RXF 393 renal and in the assay with SK-OV-3 ovarian was over 100 µM throughout.

Take `NCCCC[C@H](N)C(=O)Nc1ccc(-c2nc3ccccc3s2)cc1`: the TGI with DU-145 prostate came out at 49.1 µM; in the assay on EKVX NSCLC, 23.9 µM; in the assay on HCC-2998 colon, 81.5 µM; in the assay on HS 578T breast it was 47.6 µM; in the assay on HT29 colon, 30.1 µM; in the assay on M14 melanoma, 25.1 µM. Also, the TGI with PC-3 prostate was over 100 µM; in the assay on RXF 393 renal, over 100 µM; in the assay on SK-OV-3 ovarian it was 39.2 µM.

For `CCOC(=O)c1cc2/c(=C\c3ccc(N(C)C)cc3)c3ccccc3n2[n+]1C`, the TGI is 17.4 µM in the assay with DU-145 prostate; 21.5 µM in the assay on EKVX NSCLC; 10 µM in the assay on HCC-2998 colon; 12.7 µM with HT29 colon; 15.2 µM in the assay with M14 melanoma; 27.9 µM in the assay with MCF7 breast. The figures for the TGI in the assay with PC-3 prostate, in the assay with RXF 393 renal and with SK-OV-3 ovarian were 12.7 µM, 4.78 µM and 16.3 µM, respectively.

As to `O=C1CSC(c2ccccc2[N+](=O)[O-])N1c1ccc(-c2ccc(-n3c(-c4ccccc4)nc4ccccc4c3=O)cc2)cc1` (stereo unspecified), the TGI in the assay on DU-145 prostate, in the assay with EKVX NSCLC, with HCC-2998 colon, in the assay on HS 578T breast, in the assay with HT29 colon and with M14 melanoma was over 100 µM each time. Moreover, the TGI with MCF7 breast, with PC-3 prostate and in the assay with SK-OV-3 ovarian was over 100 µM throughout.

With `O=c1ccn(COC(COCc2ccccc2)COCc2ccccc2)c(=O)[nH]1`, the TGI in the assay on DU-145 prostate, in the assay with HCC-2998 colon, in the assay on HS 578T breast, with HT29 colon, in the assay with M14 melanoma and in the assay with MCF7 breast was over 100 µM throughout. For the same compound, the TGI in the assay with PC-3 prostate, in the assay on RXF 393 renal and in the assay with SK-OV-3 ovarian was over 100 µM in each case.

On to `COC1CC(COCc2ccccc2)CC(OC)O1` (stereo unspecified), for which the TGI in the assay with DU-145 prostate, in the assay with EKVX NSCLC, in the assay on HCC-2998 colon, in the assay with HS 578T breast, in the assay on HT29 colon and in the assay with M14 melanoma was over 100 µM throughout. For the same compound, the TGI in the assay on MCF7 breast, with RXF 393 renal and in the assay on SK-OV-3 ovarian was over 100 µM throughout.

As to `CN1C(=O)C2(C=CC(O)CC2)c2ccccc21` (stereo unspecified), the TGI with DU-145 prostate, in the assay with EKVX NSCLC, in the assay with HCC-2998 colon, in the assay with HT29 colon, in the assay on M14 melanoma and with MCF7 breast was over 100 µM each time. For the same compound, the TGI in the assay on PC-3 prostate and in the assay with SK-OV-3 ovarian was over 100 µM in each case.

In the case of `O=C1C(=O)N(c2cccc(C(F)(F)F)c2)C(=S)N1c1ccccc1`, the TGI with DU-145 prostate, in the assay with EKVX NSCLC, in the assay with HCC-2998 colon, with HS 578T breast, in the assay on HT29 colon and with PC-3 prostate was over 100 µM throughout. Also, the TGI is over 100 µM with RXF 393 renal and 70.4 µM with SK-OV-3 ovarian.

In the case of `N#CC(=N)c1ncn(-c2ccc(N)cc2)c1N`, the TGI in the assay with DU-145 prostate, in the assay with EKVX NSCLC, in the assay on HCC-2998 colon, in the assay on HS 578T breast, in the assay on HT29 colon and in the assay with M14 melanoma was over 100 µM each time. For the same compound, the TGI with MCF7 breast, in the assay with PC-3 prostate and in the assay with SK-OV-3 ovarian was over 100 µM throughout.

With `N#Cc1c(N2CCC(O)C2)c2ccccc2n2c1nc1ccccc12` (stereo unspecified), the TGI in the assay on DU-145 prostate, with EKVX NSCLC, with HCC-2998 colon, in the assay on HS 578T breast, in the assay on HT29 colon and in the assay with M14 melanoma was over 100 µM throughout. In addition, the TGI in the assay with MCF7 breast and in the assay on PC-3 prostate was over 100 µM each time.

On to `CN(C)CCn1c(=O)c2ccc(NCCN3CCNCC3)c3c(=O)c4ccccc4n(c1=O)c23`, for which the TGI in the assay with DU-145 prostate worked out at 17.7 µM; with EKVX NSCLC, 18.6 µM; in the assay with HCC-2998 colon it was 12.8 µM; in the assay on HS 578T breast, 25.9 µM; in the assay with HT29 colon, 18.8 µM; with M14 melanoma it was 29 µM. Moreover, the TGI with MCF7 breast was found to be 12.7 µM; in the assay with PC-3 prostate, 16.2 µM; in the assay with SK-OV-3 ovarian, 24.6 µM.

For `NC(=O)Cc1nc2c(N)ncnc2n1C1OC(CO)C(O)C1O` (stereo unspecified), the TGI in the assay on DU-145 prostate, in the assay on EKVX NSCLC, in the assay on HCC-2998 colon, in the assay on HS 578T breast, with HT29 colon and in the assay with M14 melanoma was over 100 µM throughout. Also, the TGI in the assay with MCF7 breast, in the assay on PC-3 prostate and in the assay on SK-OV-3 ovarian was over 100 µM throughout.

Consider `CC(=O)OCC1OC(n2c(-c3ccccc3)c(C(C)=O)c(-c3cccc4ccccc34)c(C#N)c2=S)C(OC(C)=O)C(OC(C)=O)C1OC(C)=O` (stereo unspecified), for which the TGI in the assay with DU-145 prostate, in the assay with EKVX NSCLC, in the assay on HCC-2998 colon, in the assay on HT29 colon, with M14 melanoma and in the assay with MCF7 breast was over 100 µM in each case. In addition, the TGI with PC-3 prostate, in the assay with RXF 393 renal and with SK-OV-3 ovarian was over 100 µM each time.

For the origin of these results see PubChem BioAssay (NCI).
